Columns and labels:
[1] = system: U-2 OS reporter cell lines battery; test: CALUX reporter gene assay battery as a whole; settings: all CALUX assays, 13 concentrations, 24 h exposure
PPARδ = target: T1, PPARδ (Homo sapiens, UniProt Q03181); test: PPARd CALUX; assay type: cell-based; settings: 24 h exposure, lowest effect level PC10, means from 3 assay runs
T1 construct: host or cells: U-2 OS
T1 sequence (Q03181 1-441): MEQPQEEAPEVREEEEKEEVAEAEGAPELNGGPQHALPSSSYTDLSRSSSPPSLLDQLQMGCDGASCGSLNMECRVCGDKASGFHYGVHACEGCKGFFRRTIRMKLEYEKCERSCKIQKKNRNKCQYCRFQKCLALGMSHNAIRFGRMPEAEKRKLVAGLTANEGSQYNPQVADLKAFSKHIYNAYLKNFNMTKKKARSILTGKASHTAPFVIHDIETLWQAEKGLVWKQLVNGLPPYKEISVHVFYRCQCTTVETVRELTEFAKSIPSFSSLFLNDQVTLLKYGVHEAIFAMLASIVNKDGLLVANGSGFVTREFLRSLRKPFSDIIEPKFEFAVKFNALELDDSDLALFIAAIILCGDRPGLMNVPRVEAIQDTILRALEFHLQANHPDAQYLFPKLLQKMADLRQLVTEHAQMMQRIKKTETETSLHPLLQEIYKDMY

[2] = system: p53-dependent pathway activation / genotoxicity; assay type: cell-based, human; settings: 24 h exposure, lowest effect level FI=1.5, means from 3 assay runs
Procedure: (§1) After 24 h, exposure medium was prepared. […] All samples were tested in triplicates. […] Fig. SM_4. […] Fig. SM_4.
(§2) Supplementary Material SM_4
(§3) Overview of CALUX assays.
(§4) This is defined as the concentration of test compound […]
(§5) for an antagonist assay is a PC20.
(§6) PC = positive control. FI = fold induction. PC10: concentration where test compound causes an activation equal to 10% of the maximum effect (positive control). PC20: concentration where test compound causes […]
(§7) FI=1.5: concentration where test
(§8) (A) exemplary graph of concentration- […]
(§9) receptor antagonism assay with PC20 as lowest-effect-level. (C) exemplary graph for assay with 1.5 fold inductionas lowest effect level. 9

PPARα = target: T2, PPARα (Homo sapiens, UniProt Q07869); test: PPARa CALUX; assay type: cell-based; settings: 24 h exposure, lowest effect level PC10, means from 3 assay runs
T2 construct: host or cells: U-2 OS
T2 sequence (Q07869 1-468): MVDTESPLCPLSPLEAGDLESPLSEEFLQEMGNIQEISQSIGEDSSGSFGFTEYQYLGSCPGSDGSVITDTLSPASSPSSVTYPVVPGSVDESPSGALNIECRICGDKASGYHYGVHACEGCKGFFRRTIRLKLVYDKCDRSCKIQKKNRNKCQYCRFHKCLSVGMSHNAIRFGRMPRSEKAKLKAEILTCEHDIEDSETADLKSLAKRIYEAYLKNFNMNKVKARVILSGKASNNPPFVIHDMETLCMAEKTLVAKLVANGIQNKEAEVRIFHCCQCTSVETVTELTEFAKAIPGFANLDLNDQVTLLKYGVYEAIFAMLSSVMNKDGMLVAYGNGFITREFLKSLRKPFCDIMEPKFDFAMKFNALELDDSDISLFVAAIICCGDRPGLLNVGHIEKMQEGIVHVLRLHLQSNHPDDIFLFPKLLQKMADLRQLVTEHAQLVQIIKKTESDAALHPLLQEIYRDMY
Procedure: as §1
(§10) Cell line Endpoint effect Reference compound […]
PPARa CALUX Peroxisomeproliferator activated receptor agonists PC10 GW7647 […]
as §2, §3, §4, §5, §6, §7, §8, §9

PPARγ = target: T3, PPARγ (Homo sapiens, UniProt P37231); test: PPARg2 CALUX; assay type: cell-based; settings: 24 h exposure, lowest effect level PC10, means from 3 assay runs
T3 construct: host or cells: U-2 OS
T3 sequence (P37231 1-505): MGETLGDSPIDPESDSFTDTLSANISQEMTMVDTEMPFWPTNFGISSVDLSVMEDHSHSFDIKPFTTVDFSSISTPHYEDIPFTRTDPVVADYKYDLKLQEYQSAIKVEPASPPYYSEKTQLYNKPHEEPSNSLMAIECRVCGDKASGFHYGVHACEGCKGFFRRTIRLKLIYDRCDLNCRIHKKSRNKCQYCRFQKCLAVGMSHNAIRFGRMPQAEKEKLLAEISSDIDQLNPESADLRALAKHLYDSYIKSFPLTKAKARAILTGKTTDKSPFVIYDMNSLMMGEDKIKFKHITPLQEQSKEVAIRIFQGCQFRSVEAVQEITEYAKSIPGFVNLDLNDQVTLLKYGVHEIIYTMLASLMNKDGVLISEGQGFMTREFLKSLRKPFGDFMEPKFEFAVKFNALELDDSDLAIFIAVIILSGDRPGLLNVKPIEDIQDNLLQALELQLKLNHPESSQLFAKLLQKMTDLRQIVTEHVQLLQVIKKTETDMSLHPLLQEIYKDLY
Procedure: as §1, §10, §2, §3, §4, §5, §6, §7, §8, §9

Progesterone receptor = target: T4, Progesterone receptor (Homo sapiens, UniProt P06401); test: PR-anti CALUX; assay type: cell-based; settings: 24 h exposure, lowest effect level PC20, reference agonist at EC50, means from 3 assay runs
T4 construct: host or cells: U-2 OS
T4 sequence (P06401 1-933): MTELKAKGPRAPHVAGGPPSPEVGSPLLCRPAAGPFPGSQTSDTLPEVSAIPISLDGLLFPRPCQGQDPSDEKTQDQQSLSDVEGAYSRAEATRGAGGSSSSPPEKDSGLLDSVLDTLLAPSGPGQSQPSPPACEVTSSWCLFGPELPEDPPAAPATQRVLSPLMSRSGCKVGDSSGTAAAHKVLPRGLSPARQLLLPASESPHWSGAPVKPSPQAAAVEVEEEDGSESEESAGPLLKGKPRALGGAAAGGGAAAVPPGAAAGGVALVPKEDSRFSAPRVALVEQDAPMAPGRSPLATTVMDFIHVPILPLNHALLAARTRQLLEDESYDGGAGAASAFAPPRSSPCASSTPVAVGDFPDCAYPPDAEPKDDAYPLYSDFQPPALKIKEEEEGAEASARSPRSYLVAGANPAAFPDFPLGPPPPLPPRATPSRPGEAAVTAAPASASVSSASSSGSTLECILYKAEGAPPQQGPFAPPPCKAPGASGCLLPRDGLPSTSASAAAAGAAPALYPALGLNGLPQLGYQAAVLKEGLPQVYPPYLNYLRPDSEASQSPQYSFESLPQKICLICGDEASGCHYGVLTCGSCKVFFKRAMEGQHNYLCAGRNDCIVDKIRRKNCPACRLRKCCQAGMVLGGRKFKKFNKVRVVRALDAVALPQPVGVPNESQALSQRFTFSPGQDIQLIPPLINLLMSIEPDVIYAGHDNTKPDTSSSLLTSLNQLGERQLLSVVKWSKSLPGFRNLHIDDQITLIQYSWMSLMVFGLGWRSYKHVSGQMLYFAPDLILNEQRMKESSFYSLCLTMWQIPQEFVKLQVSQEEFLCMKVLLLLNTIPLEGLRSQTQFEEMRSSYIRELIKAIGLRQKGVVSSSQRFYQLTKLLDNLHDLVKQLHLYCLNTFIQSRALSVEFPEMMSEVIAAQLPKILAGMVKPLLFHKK
Procedure: as §1, §2, §3, §4, §5, §6, §7, §8, §9

Pregnane X receptor = target: T5, Pregnane X receptor (Homo sapiens, UniProt O75469); test: PXR CALUX; assay type: cell-based; settings: 24 h exposure, lowest effect level PC10, means from 3 assay runs
T5 construct: host or cells: U-2 OS
T5 sequence (O75469 1-434): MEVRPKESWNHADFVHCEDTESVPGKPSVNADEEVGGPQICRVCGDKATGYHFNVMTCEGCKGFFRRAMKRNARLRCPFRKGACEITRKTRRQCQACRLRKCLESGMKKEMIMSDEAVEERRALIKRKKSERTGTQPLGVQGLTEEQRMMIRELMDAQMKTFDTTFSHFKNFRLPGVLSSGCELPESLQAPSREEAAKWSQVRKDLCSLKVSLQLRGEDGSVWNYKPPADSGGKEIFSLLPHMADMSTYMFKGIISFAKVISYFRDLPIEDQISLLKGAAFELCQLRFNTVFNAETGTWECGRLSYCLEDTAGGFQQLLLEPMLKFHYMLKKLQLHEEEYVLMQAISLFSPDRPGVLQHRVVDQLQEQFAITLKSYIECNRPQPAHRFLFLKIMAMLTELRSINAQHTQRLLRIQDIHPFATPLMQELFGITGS
Procedure: as §1, §2, §3, §4, §5, §6, §7, §8, §9

[3] = system: Endoplasmic reticulum stress; test: ESRE CALUX; assay type: cell-based, human; settings: 24 h exposure, lowest effect level PC10, means from 3 assay runs
Procedure: as §1, §2, §3, §4, §5, §6, §7, §8, §9

[4] = system: wnt/TCF pathway activation; test: TCF CALUX; assay type: cell-based, human; settings: 24 h exposure, lowest effect level FI=1.5, means from 3 assay runs
[5] = system: Transcription of p21 inhibitor of cell cycle progression; test: p21 CALUX; assay type: cell-based, human; settings: 24 h exposure, lowest effect level PC10, means from 3 assay runs
Procedure: as §1, §2, §3, §4, §5, §6, §7, §8, §9

For `CC(C)Cc1ccc(C(C)C(=O)O)cc1` (centres unmarked) [Ibuprofen], the “response profile over the CALUX battery (in words)” value [1] was “activated all three isoforms of the peroxisome proliferator activated receptor”, the “PoD PPARδ - ago” value (PPARδ) was 4.0 -log(M) and the “PoD p53” value [2] was 3.0 -log(M). The “PoD PPARα - ago” value (PPARα) was 4.3 -log(M) and the “PoD PPARγ - ago” value (PPARγ) was 4.0 -log(M).
`CCCC(CCC)C(=O)O` [Valproic acid] was tested, and the “PoD PR - anta” value (Progesterone receptor) was 3.1 -log(M), the “PoD PXR - ago” value (Pregnane X receptor) was 4.0 -log(M) and the “PoD ESRE” value [3] was 4.0 -log(M). For the same molecule, the “PoD PPARα - ago” value (PPARα) was 4.0 -log(M), the “PoD TCF” value [4] was 4.0 -log(M) and the “PoD p21” value [5] was 3.2 -log(M).

Reference: article PMC7367925, “The EU-ToxRisk method documentation, data processing and chemical testing pipeline for the regulatory use of new approach methods” (Archives of Toxicology, 2020)
